One block for each molecule: values may come before it.
Tests used:
[1] = target: T1, Glycylpeptide N-tetradecanoyltransferase (Plasmodium vivax (strain Salvador I), UniProt A5K1A2); assay: Inhibition of recombinant Plasmodium vivax NMT
T1 sequence (A5K1A2 whole entry): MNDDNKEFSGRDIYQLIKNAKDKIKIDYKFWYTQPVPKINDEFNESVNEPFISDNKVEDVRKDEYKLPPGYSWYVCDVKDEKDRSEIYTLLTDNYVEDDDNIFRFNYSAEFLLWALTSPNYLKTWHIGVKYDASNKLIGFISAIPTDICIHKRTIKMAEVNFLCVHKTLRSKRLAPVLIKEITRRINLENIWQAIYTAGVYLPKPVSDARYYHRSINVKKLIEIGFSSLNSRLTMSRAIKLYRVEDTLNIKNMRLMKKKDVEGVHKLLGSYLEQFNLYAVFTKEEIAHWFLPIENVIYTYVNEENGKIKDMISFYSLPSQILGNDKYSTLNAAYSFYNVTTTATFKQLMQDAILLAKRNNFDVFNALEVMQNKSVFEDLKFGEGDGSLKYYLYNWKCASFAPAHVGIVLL

[2] = target: T2, Glycylpeptide N-tetradecanoyltransferase (Plasmodium falciparum, UniProt Q9U419); assay: Inhibition of recombinant Plasmodium falciparum NMT
T2 sequence (Q9U419 whole entry): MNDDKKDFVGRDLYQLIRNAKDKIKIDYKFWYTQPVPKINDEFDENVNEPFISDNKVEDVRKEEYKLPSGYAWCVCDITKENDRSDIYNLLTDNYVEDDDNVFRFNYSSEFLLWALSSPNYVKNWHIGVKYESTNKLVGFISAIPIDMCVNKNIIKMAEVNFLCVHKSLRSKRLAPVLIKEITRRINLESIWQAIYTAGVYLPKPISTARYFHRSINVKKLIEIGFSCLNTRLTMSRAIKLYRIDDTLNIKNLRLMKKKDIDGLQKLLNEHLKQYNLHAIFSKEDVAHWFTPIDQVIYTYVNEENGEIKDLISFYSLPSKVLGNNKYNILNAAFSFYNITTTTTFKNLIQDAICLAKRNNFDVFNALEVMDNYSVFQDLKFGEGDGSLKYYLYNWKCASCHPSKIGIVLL

[3] = target: T3, Glycylpeptide N-tetradecanoyltransferase 1 (Homo sapiens, UniProt P30419); assay: Inhibition of recombinant human NMT
T3 sequence (P30419 whole entry): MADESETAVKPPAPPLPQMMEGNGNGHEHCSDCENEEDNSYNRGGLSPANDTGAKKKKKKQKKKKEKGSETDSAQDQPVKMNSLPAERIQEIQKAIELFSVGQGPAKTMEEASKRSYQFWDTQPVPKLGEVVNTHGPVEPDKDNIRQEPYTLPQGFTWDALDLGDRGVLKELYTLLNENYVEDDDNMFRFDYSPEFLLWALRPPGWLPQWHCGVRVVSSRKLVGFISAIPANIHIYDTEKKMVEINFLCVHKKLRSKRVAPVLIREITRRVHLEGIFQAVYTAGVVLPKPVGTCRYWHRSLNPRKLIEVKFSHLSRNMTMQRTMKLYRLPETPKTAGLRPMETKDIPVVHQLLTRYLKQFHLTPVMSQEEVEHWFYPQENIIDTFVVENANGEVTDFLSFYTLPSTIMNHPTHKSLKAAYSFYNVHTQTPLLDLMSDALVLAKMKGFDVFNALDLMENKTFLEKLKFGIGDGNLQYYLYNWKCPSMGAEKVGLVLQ

[4] = target: T2, Glycylpeptide N-tetradecanoyltransferase; assay: Binding affinity to Plasmodium falciparum NMT assessed as inhibition constant using GSNKSKPKDASQRRR-NH2 as peptide substrate
[5] = target: T1, Glycylpeptide N-tetradecanoyltransferase; assay: Binding affinity to Plasmodium vivax NMT assessed as inhibition constant using YnMyr-CoA as substrate
[6] = Inhibition of full length Brugia malayi NMT expressed in Escherichia coli incubated for 10 mins by liquid scintillation analysis
[7] = Inhibition of full length Caenorhabditis elegans NMT expressed in Escherichia coli incubated for 10 mins by liquid scintillation analysis

- IC50 [1]: 0.68 µM
- IC50 [2]: 24.3 µM
- IC50 [3]: 0.06 µM
Compound: NCCCCCCCCCC(=O)N[C@@H](CO)C(=O)N[C@@H](CCCCN)C(=O)NCCC1CCCCC1

- Ki [4]: 0.008 µM
- Ki [5]: 0.0027 µM
Compound: Cc1nn(C)c(C)c1Cc1nnc(-c2sc3ccccc3c2NC2CCNCC2)o1

- IC50 [6]: 2 µM
- IC50 [7]: 0.01 µM
Compound: Cc1nn(C)c(CC(C)C)c1NS(=O)(=O)c1c(Cl)cc(-c2cccc(C(C)(C)N)c2)cc1Cl

From ChEMBL document CHEMBL5634069, “Exploring N-myristoyltransferase as a promising drug target against parasitic neglected tropical diseases” (Eur J Med Chem, 2023)
